According to PMC6338644 (The FASEB Journal, 2018):
Where a name gives a salt, the structure may show the parent alone.

Assays:
[1] = molecular target: T1, SHIP2 immunoprecipitated from the lysates of hepatoma cells (Rattus norvegicus, UniProt Q9WVR3); experiment: Activity of SHIP2 immunoprecipitated from hepatoma cells; type: cell-based; conditions: 10 µM, 20–24 h
T1 construct: endogenous in cells; host or cells: Fao hepatoma cells
T1 sequence (Q9WVR3 1-1257): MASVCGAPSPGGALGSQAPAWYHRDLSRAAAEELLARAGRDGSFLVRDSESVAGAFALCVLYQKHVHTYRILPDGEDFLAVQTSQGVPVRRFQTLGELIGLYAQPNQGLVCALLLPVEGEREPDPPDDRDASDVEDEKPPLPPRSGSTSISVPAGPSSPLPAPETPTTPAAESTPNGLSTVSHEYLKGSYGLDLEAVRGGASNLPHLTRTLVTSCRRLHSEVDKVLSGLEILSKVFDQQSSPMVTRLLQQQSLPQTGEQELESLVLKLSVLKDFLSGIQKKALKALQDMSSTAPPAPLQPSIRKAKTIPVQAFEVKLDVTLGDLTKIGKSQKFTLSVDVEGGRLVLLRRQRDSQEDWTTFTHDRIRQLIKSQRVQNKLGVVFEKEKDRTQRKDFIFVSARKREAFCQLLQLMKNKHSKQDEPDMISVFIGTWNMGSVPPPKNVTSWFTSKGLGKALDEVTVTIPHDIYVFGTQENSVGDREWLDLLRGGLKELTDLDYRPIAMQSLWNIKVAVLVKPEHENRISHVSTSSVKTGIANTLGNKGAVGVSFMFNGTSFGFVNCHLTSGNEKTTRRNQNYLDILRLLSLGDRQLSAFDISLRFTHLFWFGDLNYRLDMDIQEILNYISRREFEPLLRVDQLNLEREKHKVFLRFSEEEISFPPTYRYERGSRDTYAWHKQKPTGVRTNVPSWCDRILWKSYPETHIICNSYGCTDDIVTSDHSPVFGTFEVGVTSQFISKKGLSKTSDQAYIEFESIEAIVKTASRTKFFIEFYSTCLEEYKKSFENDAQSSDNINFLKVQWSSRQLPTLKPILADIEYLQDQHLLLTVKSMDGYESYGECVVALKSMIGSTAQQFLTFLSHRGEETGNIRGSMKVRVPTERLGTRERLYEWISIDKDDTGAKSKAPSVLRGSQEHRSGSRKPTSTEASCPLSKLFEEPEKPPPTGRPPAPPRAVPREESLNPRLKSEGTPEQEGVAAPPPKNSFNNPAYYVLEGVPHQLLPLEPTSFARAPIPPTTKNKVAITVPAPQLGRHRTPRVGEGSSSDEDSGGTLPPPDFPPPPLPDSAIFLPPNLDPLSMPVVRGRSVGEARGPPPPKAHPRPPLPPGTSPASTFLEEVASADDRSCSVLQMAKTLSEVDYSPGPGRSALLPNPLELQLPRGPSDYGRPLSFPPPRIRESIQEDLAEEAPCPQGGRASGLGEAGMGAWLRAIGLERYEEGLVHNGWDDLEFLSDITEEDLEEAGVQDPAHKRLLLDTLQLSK
Description: (§1) Immunocomplexes were bound to protein G-Sepharose beads at +4°C for 2 h and washed 3 times with malachite green phosphate assay buffer {10 mM 4-(2-hydroxyethyl)-1-piperazineethanesulfonic acid (HEPES), pH 7.25, 6 mM MgCl2, 0.1% 3-[(3-cholamidopropyl)dimethylammonio]-1-propanesulfonate (CHAPS), 250 mM sucrose, and 0.25 mM EDTA}.
(§2) The catalytic activity of SHIP2 immunoprecipitated from cell and tissue lysates was determined as in Saurus et al. ([22]), omitting SHIP2 inhibitors in lysis buffer, immunoprecipitation reaction, wash, and assay buffers.

[2] = test system: GLUT1 and GLUT4 protein expression; experiment: Immunoblot of GLUT1 and GLUT4 expression in myotubes and podocytes; type: cell-based, rat, human; conditions: 2 mM, 20–24 h
Description: Rat L6 myoblasts (American Type Culture Collection, Manassas, VA, USA) and hepatoma cells (Fao Cells, Culture Collection; Public Health England, Salisbury, United Kingdom) were maintained according to the provider’s instructions. L6 myoblasts stably expressing hemagglutinin-GLUT4-green fluorescent protein (HA-GLUT4-GFP, referred to as L6-GLUT4) were generated, as previously described ([19]). Immortalized human podocytes were maintained as previously described ([10]). Lentiviral infection was used to overexpress or knock down transiently SHIP2 in cultured cells on d 10–12 of differentiation for 48 h (basal level) or 72 h (insulin stimulation), as previously described ([10], [20]). Human pLKO1-short hairpin RNA (shRNA) SHIP2 ([sequence]) was obtained from Functional Genomics Unit, University of Helsinki. […] Podocytes were lysed as previously described ([21]). Myotubes, hepatoma cells, and tissues were lysed and immunoblotting performed as in Tolvanen et al. ([19]) with anti-SHIP2 and anti-AMPK (Santa Cruz Biotechnology, Dallas, TX, USA); anti-phospho (p)Akt (S473), anti-pAMPK (Thr172), anti-AMPK, and anti-cleaved caspase-3 (Cell Signaling Technology, Danvers, MA, USA); anti-Pan Akt (R&D Systems, Minneapolis, MN, USA); anti-tubulin, anti-Glut4, and anti-Glut1 (MilliporeSigma, Burlington, MA, USA); and anti-actin (Abcam, Cambridge, United Kingdom).

[3] = molecular target: T2, purified His-tagged SHIP2 phosphatase domain (Homo sapiens, UniProt O15357); experiment: Manual malachite green phosphate assay (96-well), purified SHIP2 phosphatase domain; type: biochemical; conditions: 10 µM; 100 ng enzyme; manual assay (Fig. 1B)
T2 construct: we produced a His-tagged human SHIP2 phosphatase domain; His; made in house
T2 sequence (O15357 419-732 limits assumed): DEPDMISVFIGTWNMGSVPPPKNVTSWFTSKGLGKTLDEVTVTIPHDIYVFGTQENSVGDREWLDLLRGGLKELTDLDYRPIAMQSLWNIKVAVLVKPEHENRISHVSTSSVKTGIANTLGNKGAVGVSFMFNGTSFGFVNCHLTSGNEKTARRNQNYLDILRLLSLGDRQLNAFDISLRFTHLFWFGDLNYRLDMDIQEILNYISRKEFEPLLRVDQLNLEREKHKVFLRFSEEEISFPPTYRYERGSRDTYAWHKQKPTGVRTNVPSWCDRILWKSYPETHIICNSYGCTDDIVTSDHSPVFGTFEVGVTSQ
Description: as §1
The catalytic activities of the recombinant SHIP2 and SHIP1 phosphatase domains were determined by malachite green phosphate assay at the High Throughput Biomedicine Unit (University of Helsinki) using D-myo-PI(3,4,5)P3 (Echelon Biosciences, Salt Lake City, UT, USA). Different volumes, resulting in desired final concentrations of inhibitors, were transferred to the wells of 384-well plates by using the Echo550 acoustic dispenser (Labcyte, San Jose, CA, USA). Recombinant protein (100 ng) in reaction buffer {10 mM HEPES, pH 7.25, 6 mM MgCl2, 0.1% CHAPS, 250 mM sucrose, and 0.25 mM EDTA} was placed in each well (7.5 µl), and the plates were preincubated at room temperature for 15 min. The phosphatase reaction was started by adding PI(3,4,5)P3 diluted in the reaction buffer (7.5 µl) to each well to reach a final concentration of 100 µM PI(3,4,5)P3 in the 15 µl reaction volume. […] Absorbance was measured at 620 nm using a Pherastar FS plate reader (BMG Labtech, Offenburg, Germany). […]
The catalytic activity of SHIP2 was measured by manual malachite green phosphate assay. […]

db/db mice = experiment: Metabolic assays in db/db mice; type: in vivo, mouse; conditions: 250 mg/kg per day, 12 d
Description: At the end of the experiment, mice were euthanized.
Insulin tolerance test was performed and blood glucose measured at the indicated times after insulin injection, and the area under the curve (AUC) was calculated (n = 5–6).

[4] = molecular target: SHIP2 in tissues of db/db mice (Mus musculus, UniProt Q6P549); conditions: 250 mg/kg per day, 12 d
Sequence of SHIP2 in tissues of db/db mice (Q6P549 whole entry): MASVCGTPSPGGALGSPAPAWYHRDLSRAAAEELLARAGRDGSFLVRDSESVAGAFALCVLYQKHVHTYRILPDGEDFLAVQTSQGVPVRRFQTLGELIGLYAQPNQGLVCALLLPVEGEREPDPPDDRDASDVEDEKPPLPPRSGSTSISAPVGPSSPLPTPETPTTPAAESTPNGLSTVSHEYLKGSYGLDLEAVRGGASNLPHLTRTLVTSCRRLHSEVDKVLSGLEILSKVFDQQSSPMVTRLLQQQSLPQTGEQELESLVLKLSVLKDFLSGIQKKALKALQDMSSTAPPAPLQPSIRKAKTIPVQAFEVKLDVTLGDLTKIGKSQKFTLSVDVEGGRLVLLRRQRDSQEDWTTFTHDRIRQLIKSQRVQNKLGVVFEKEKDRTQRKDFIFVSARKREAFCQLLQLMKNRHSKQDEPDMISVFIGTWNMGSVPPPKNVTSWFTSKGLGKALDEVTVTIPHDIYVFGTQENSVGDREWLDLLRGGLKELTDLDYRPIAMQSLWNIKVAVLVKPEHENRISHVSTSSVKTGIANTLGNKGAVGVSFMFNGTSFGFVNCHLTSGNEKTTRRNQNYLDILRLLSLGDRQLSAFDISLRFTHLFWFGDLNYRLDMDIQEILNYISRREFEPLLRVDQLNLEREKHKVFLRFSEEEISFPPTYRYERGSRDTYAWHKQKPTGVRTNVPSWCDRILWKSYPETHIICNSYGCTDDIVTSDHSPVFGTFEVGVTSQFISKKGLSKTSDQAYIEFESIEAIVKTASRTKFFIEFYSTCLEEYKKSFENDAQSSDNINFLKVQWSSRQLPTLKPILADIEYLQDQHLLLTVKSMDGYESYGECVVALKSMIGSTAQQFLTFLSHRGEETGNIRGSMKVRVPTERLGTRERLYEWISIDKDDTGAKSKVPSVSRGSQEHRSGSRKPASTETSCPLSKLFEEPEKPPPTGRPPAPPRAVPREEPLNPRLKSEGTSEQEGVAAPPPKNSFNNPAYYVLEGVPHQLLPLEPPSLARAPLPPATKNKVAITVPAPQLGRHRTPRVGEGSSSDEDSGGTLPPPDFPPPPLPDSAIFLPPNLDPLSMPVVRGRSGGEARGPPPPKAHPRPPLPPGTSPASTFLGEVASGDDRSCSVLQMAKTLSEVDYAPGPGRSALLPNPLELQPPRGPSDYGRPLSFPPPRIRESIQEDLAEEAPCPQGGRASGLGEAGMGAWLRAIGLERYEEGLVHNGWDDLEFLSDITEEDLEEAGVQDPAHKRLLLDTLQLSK
Description: as §2
At the end of the experiment, mice were euthanized. Freshly dissected skeletal muscle, kidney, and liver tissues were snap frozen in liquid nitrogen, embedded in Tissue-Tek Optimal Cutting Temperature (OCT) compound (Sakura Finetek, Alphen aan den Rijn, The Netherlands), or fixed in 10% formalin, followed by embedding in paraffin.
SHIP2 was immunoprecipitated from tissue lysates and its catalytic activity measured by malachite green phosphate assay (n = 6–8).

C[C@H](NC(=O)c1sccc1OCc1ccc(Cl)cc1)c1ccccc1 [AS1949490]
inhibition of SHIP2 in hepatoma cells [1]: did not inhibit

CN(C)C(=N)N=C(N)N [Metformin, 1,1-Dimethylbiguanide hydrochloride]
effect on GLUT1 and GLUT4 protein expression levels [2]: no effect | reduction of catalytic activity of recombinant SHIP2 phosphatase domain [3]: 44% | effect on body weight (db/db mice): no effect | effect on fasting blood glucose concentrations (db/db mice; 6 h fasting): no effect | effect on urinary albumin excretion (db/db mice; 24 h urine): no effect | insulin tolerance test: fasting blood glucose at 30–120 min after insulin administration (db/db mice; insulin 0.75 U/kg): reduces | insulin tolerance test: glucose area under the curve (db/db mice; insulin 0.75 U/kg): reduces | SHIP2 activity in the liver [4]: not reduced | decrease in enzymatic activity of SHIP2 in kidney [4]: 40%
